The values that follow come from patent US5169634A, “Pharmaceutical dosage form for the medication of fish” (priority 1988, dated 1992).

Common to all, as to format: cell-based
Test [1] has as its system Yersinia ruckeri, serotype 2. As to the kind of experiment: Minimal inhibitory concentration, Yersinia ruckeri, serotype 2.
In the next test the test system is Vibrio salmonicidia. In words: Minimal inhibitory concentration, Vibrio salmonicidia.
In test [2] the test system is Vibrio anguillarum, serotype 1. In words: Minimal inhibitory concentration, Vibrio anguillarum, serotype 1.
Test [3] relates to Yersinia ruckeri, serotype 3. As to the kind of experiment: Minimal inhibitory concentration, Yersinia ruckeri, serotype 3.

Turning to `CC1CCc2cc(F)cc3c(=O)c(C(=O)O)cn1c23` (centres unmarked) [Flumequine, flumequine], the “Minimal Inhibitory Concentration” value is listed as 1.2 in test [1], 0.035 in the test with Vibrio salmonicidia, 0.035 in test [2] and 0.25 in test [3].

As to `CCn1cc(C(=O)O)c(=O)c2cc3c(cc21)OCO3` [Oxolinic Acid, oxolinic acid], the “Minimal Inhibitory Concentration” value in test [1] was 1.0; in the test on Vibrio salmonicidia it was 0.07; in test [2], 0.035; in test [3], 0.25.
